According to patent US20040033587A1, “Method and device for detecting Biologically Active Substances” (Bayer Aktiengesellschaft, priority 2002, published 2004):

Tested on: Vibrio fischeri
Assay: increase in luminescence of Vibrio fischeri culture with addition of aspartic acid to the cultivation medium
Format: cell-based
Conditions: 12.5 mg of aspartic acid added to cultivation medium; aspartic acid-free medium starts only at a later time
Procedure: In two cultivation experiments carried out in parallel, bacterial suspensions were prepared according to the method described below. In order to test the influence of aspartic acid, 12.5 mg of aspartic acid had been added to the cultivation medium of one of the two reaction mixtures. The effect of the addition of aspartic acid was detected by taking luminescence images using the Nightowl camera system from EG&G Berthold and is depicted in FIGS. 2a and 2b.
A tissue culture flask (e.g. Falcon Cat. No. 353110) which contains 125 ml of cultivation medium and a magnetic stirring bar was inoculated with bacteria from a Vibrio fischeri strain stock. The inoculated cultivation solution was then incubated with slow stirring on a magnetic stirrer at room temperature.

SMILES: N[C@@H](CC(=O)O)C(=O)O [aspartic acid]
- incubation time after which the culture showed a distinct luminescence: ≤ 18 h
